Results from ChEMBL document CHEMBL5579843, “Multimechanism biological profiling of tetrahydro-β-carboline analogues as selective HDAC6 inhibitors for the treatment of Alzheimer's disease” (Eur J Med Chem, 2024).
Calls of active or inactive are those of the source. The calls are words filed in the database; no cut-off is given here.

Columns and labels:
PC-12 [1] = assay: Neuroprotective activity against H2O2-induced oxidative damage in rat PC-12 cells assessed as reduction in intracellular LDH level by measuring residual activity at 1 uM pretreated for 4 hrs followed by H2O2 stimulation and measured after 24 hrs relative to control; assay type: functional; details: time 28 hrs
PC-12 [2] = assay: Neuroprotective activity against H2O2-induced oxidative damage in rat PC-12 cells assessed as increase in cell survival pretreated for 4 hrs followed by 800 uM H2O2 stimulation and measured after 24 hrs by MTT assay; assay type: functional, cell-based; details: dose 1-10 µM, time 28.0 hrs
PC-12 [3] = assay: Neuroprotective activity against H2O2-induced oxidative damage in rat PC-12 cells assessed as reduction in ROS level at 10 uM pretreated for 4 hrs followed by H2O2 stimulation and measured after 24 hrs by DCFH-DA staining based fluorescence microscopic analysis; assay type: functional, cell-based; details: time 28.0 hrs
PC-12 [4] = assay: Inhibition of HDAC6 in rat PC-12 cells assessed as increase in acetylated alpha-tubulin level incubated for 6 hrs by Western blot analysis; assay type: cell-based; details: dose 0.1-10 µM
PC-12 [5] = assay: (§1) Neuroprotective activity against H2O2-induced oxidative damage in rat PC-12 cells assessed as inhibition of apoptosis by measuring early apoptotic cells at 10 uM pretreated for 4 hrs followed by H2O2 stimulation and measured after 24 hrs by Annexin V-FITC/PI staining based flow cytometry analysis (reference value: 2.32%); assay type: functional; set-up: scale not given: the % may be the effect or the level left; details: time 28 hrs
SH-SY5Y [6] = assay: Neuroprotective activity against H2O2-induced oxidative damage in human SH-SY5Y cells assessed as cell survival rate at 10 uM pretreated for 4 hrs followed by 200 uM H2O2 stimulation and measured after 24 hrs by MTT assay relative to control; assay type: functional; details: time 28 hrs
SH-SY5Y [7] = assay: Neuroprotective activity against 6-OHDA-induced oxidative damage in human SH-SY5Y cells assessed as increase in cell survival at 1 to 10 uM pretreated for 4 hrs followed by 100 uM 6-OHDA stimulation and measured after 24 hrs by MTT assay; assay type: functional, cell-based; details: dose 1-10 µM, time 28.0 hrs
PC-12 [8] = assay: as §1, with “dead” for “early apoptotic”, “5.10%)” for “2.32%)”; assay type: functional; set-up: scale not given: the % may be the effect or the level left; details: time 28 hrs
PC-12 [9] = assay: Neuroprotective activity against H2O2-induced oxidative damage in rat PC-12 cells assessed as increase in Nrf2 protein expression at 10 uM pretreated for 4 hrs followed by H2O2 stimulation and measured after 24 hrs by Western blot analysis; assay type: functional, cell-based; details: time 28.0 hrs
PC-12 [10] = assay: Neuroprotective activity against H2O2-induced oxidative damage in rat PC-12 cells assessed as SOD activity at 10 uM pretreated for 4 hrs followed by H2O2 stimulation and measured after 24 hrs by WST-8 assay; assay type: functional; details: time 28 hrs
Histone deacetylase 2 = Histone deacetylase 2 (Homo sapiens, UniProt Q92769); assay: Inhibition of HDAC2 (unknown origin)
PC-12 [11] = assay: Neuroprotective activity against H2O2-induced oxidative damage in rat PC-12 cells assessed as reduction in intracellular LDH level by measuring residual activity at 5 uM pretreated for 4 hrs followed by H2O2 stimulation and measured after 24 hrs relative to control; assay type: functional; details: time 28 hrs
PC-12 [12] = assay: Induction of neurite outgrowth in rat PC-12 cells assessed as increase in neuronal protrusions at 10 uM measured after 48 hrs by light microscopic analysis; assay type: functional, cell-based
PC-12 [13] = assay: as §1, with “live” for “early apoptotic”, “81.7%)” for “2.32%)”; assay type: functional; set-up: scale not given: the % may be the effect or the level left; details: time 28 hrs
[14] = Antioxidant activity assessed as ABTS radical scavenging activity measured after 30 mins by absorbance based analysis; assay type: functional
PC-12 [15] = assay: Neuroprotective activity against H2O2-induced oxidative damage in rat PC-12 cells assessed as increase in Prx II protein expression measured after 24 hrs by Western blot analysis; assay type: functional, cell-based; details: dose 1-10 µM
Danio rerio [16] = species: Danio rerio; assay: Effect on anxiety-like behavior in scopolamine induced zebrafish alzheimer disease model assessed as exploratory behavior in upper part of aquarium by measuring increase in swimming speed at 1 mg/L pretreated with scopolamine for 30 mins followed by compound addition for 3 mins by novel tank diving test; assay type: functional, organism-based
[17] = target: T1, Polyamine deacetylase HDAC10 (Homo sapiens, UniProt Q969S8); assay: Inhibition of HDAC10 (unknown origin) by TR-FRET assay
T1 sequence (Q969S8 whole entry): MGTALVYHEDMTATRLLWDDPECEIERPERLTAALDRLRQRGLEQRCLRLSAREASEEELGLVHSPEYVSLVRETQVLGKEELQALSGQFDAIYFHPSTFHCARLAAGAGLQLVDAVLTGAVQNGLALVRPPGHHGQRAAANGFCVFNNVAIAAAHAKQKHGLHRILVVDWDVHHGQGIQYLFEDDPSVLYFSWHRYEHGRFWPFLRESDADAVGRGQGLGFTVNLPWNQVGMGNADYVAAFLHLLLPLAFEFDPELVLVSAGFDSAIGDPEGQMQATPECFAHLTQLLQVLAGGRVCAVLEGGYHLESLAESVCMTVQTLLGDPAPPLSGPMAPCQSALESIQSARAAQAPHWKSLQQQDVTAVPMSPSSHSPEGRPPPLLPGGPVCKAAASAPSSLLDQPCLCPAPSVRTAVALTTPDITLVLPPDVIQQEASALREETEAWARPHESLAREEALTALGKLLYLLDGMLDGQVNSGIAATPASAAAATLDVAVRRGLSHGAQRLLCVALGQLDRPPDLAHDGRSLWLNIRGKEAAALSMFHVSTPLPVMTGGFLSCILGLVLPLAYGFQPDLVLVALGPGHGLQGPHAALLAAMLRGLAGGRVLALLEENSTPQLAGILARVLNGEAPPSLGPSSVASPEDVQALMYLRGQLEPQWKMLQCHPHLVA

Danio rerio [18] = species: Danio rerio; assay: Cognitive improvement ability in scopolamine induced zebrafish alzheimer disease model assessed as improvement in motor activity by measuring increase in total distance of swimming at 1 mg/L pretreated with scopolamine for 30 mins followed by compound addition for 3 mins by T-maze test; assay type: functional, organism-based
Danio rerio [19] = species: Danio rerio; assay: Cognitive improvement ability in scopolamine induced zebrafish alzheimer disease model assessed as improvement in spatial memory by measuring increase in activity at enriched chamber region at 1 mg/L pretreated with scopolamine for 30 mins followed by compound addition for 3 mins by T-maze test; assay type: functional, organism-based
PC-12 [20] = assay: Neuroprotective activity against 6-OHDA-induced oxidative damage in rat PC-12 cells assessed as increase in cell survival at 1 to 10 uM pretreated for 4 hrs followed by 500 uM 6-OHDA stimulation and measured after 24 hrs by MTT assay; assay type: functional, cell-based; details: dose 1-10 µM, time 28.0 hrs
PC-12 [21] = assay: Neuroprotective activity against H2O2-induced oxidative damage in rat PC-12 cells assessed as inhibition of apoptosis by measuring increase in Bcl-2 protein expression pretreated for 4 hrs followed by H2O2 stimulation and measured after 24 hrs by Western blot analysis; assay type: functional, cell-based; details: dose 1-10 µM, time 28.0 hrs
PC-12 [22] = assay: Neuroprotective activity against H2O2-induced oxidative damage in rat PC-12 cells assessed as cell survival rate at 10 uM pretreated for 4 hrs followed by 800 uM H2O2 stimulation and measured after 24 hrs by MTT assay relative to control; assay type: functional; details: time 28 hrs, read-out: Survival
SH-SY5Y [23] = assay: Neuroprotective activity against H2O2-induced oxidative damage in human SH-SY5Y cells assessed as increase in cell survival pretreated for 4 hrs followed by 200 uM H2O2 stimulation and measured after 24 hrs by MTT assay; assay type: functional, cell-based; details: dose 1-10 µM, time 28.0 hrs
PC-12 [24] = assay: Neuroprotective activity against H2O2-induced oxidative damage in rat PC-12 cells assessed as increase in catalase protein expression at 10 uM pretreated for 4 hrs followed by H2O2 stimulation and measured after 24 hrs by Western blot analysis; assay type: functional, cell-based; details: time 28.0 hrs

Sequence of Histone deacetylase 2 (Q92769 whole entry): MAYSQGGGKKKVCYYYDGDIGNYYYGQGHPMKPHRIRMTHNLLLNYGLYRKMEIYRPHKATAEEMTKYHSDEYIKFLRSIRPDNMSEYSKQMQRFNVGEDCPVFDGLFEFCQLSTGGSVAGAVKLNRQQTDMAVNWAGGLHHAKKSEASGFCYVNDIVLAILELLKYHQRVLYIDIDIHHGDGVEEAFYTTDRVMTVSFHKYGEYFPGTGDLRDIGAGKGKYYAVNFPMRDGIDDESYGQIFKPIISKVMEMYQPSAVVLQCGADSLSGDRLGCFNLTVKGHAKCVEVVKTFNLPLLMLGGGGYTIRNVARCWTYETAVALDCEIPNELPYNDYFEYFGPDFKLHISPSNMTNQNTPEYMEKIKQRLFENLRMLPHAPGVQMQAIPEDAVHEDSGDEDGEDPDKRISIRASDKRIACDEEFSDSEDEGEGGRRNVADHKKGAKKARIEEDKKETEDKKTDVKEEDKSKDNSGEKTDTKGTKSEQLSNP

With `O=C(NO)c1ccc(CN2CCc3c(n(CC4CC4)c4ccc(F)cc34)C2)cc1` the Activity (PC-12 [1]) was 74.3%, the Activity (PC-12 [2]) was “Dose-Dependent Effect” and the Activity (PC-12 [3]) was “Active”. The inhibition (PC-12 [4]) was “Dose-Dependent Effect”, the Activity (PC-12 [5]) was 4.22% and the Activity (SH-SY5Y [6]) was 78%. The Activity (SH-SY5Y [7]) was “Active”, the Activity (PC-12 [8]) was 1.12% and the Activity (PC-12 [9]) was “Active”. It also gave an Activity (PC-12 [10]) of 17.16 U/mg, an IC50 (Histone deacetylase 2) of 19.3 µM and an Activity (PC-12 [11]) of 50.2%. For the same compound, the Activity (PC-12 [12]) was “Active”, the Activity (PC-12 [13]) was 91.5% and the IC50 [14] was 10.4 µM. The Activity (PC-12 [15]) was “Dose-Dependent Effect”, the Activity (Danio rerio [16]) was “Active” and the IC50 [17] was 0.524 µM. The Activity (Danio rerio [18]) was “Active”, the Activity (Danio rerio [19]) was “Active” and the Activity (PC-12 [20]) was “Active”. For the same compound, the Activity (PC-12 [21]) was “Dose-Dependent Effect”, the viability at 10 µM (PC-12 [22]) was 89.7% and the Activity (SH-SY5Y [23]) was “Dose-Dependent Effect”. For the same compound, the Activity (PC-12 [24]) was “Active”.
